Laboratory results: the NIST ThermoML archive (doi:10.1021/je060219e)
Values joined by “and” are separate entries in the source; they are usually repeats but may differ in a detail not shown here. Equal entries are not always repeated. ± gives the expanded uncertainty stated by the source.

Test: φn = volume fraction of the nth substance listed
Conditions: 101 kPa, Liquid

CCO [ethanol] + O
viscosity (303.15 K, φ1 = 0.1): 0.6791 ± 0.07 mPa·s | viscosity (303.15 K, φ1 = 0.2): 0.9735 ± 0.094 mPa·s | viscosity (303.15 K, φ1 = 0.3): 1.186 ± 0.11 mPa·s | viscosity (303.15 K, φ1 = 0.4): 1.254 ± 0.12 mPa·s | viscosity (303.15 K, φ1 = 0.5): 1.426 ± 0.13 mPa·s | viscosity (308.15 K, φ1 = 0.1): 0.6191 ± 0.066 mPa·s | viscosity (308.15 K, φ1 = 0.2): 0.871 ± 0.086 mPa·s | viscosity (308.15 K, φ1 = 0.3): 0.8816 ± 0.087 mPa·s | viscosity (308.15 K, φ1 = 0.4): 1.147 ± 0.11 mPa·s | viscosity (308.15 K, φ1 = 0.5): 1.216 ± 0.11 mPa·s | viscosity (313.15 K, φ1 = 0.1): 0.5909 ± 0.063 mPa·s | viscosity (313.15 K, φ1 = 0.2): 0.7442 ± 0.076 mPa·s | viscosity (313.15 K, φ1 = 0.3): 0.8614 ± 0.085 mPa·s | viscosity (313.15 K, φ1 = 0.4): 0.9262 ± 0.09 mPa·s | viscosity (313.15 K, φ1 = 0.5): 1.14 ± 0.11 mPa·s | viscosity (318.15 K, φ1 = 0.1): 0.5763 ± 0.062 mPa·s | viscosity (318.15 K, φ1 = 0.2): 0.6476 ± 0.068 mPa·s | viscosity (318.15 K, φ1 = 0.3): 0.797 ± 0.08 mPa·s and 0.79 ± 0.079 mPa·s | viscosity (318.15 K, φ1 = 0.4): 0.8844 ± 0.087 mPa·s | viscosity (318.15 K, φ1 = 0.5): 0.8776 ± 0.087 mPa·s | viscosity (323.15 K, φ1 = 0.1): 0.5305 ± 0.058 mPa·s | viscosity (323.15 K, φ1 = 0.2): 0.598 ± 0.064 mPa·s | viscosity (323.15 K, φ1 = 0.3): 0.698 ± 0.072 mPa·s | viscosity (323.15 K, φ1 = 0.4): 0.7081 ± 0.073 mPa·s | viscosity (323.15 K, φ1 = 0.5): 0.825 ± 0.082 mPa·s
